{"source": "patent US20020004611A1", "about": "(Cargill, Incorporated, priority 1997, published 2002)", "assay_type_in_all_cases": "physicochemical", "key": {"[1]": {"test": "Back extraction of lactic acid from Alamine 336 into second polar liquid phase (Example 4)", "protocol": "Two solutions of lactic acid and […] 336 were made by contacting the […] […] The samples were held at the specified temperature in an oil bath for about 45 to 60 minutes with regular mixing. […] A similar procedure was used for contacting […] […] Phases were allowed to settle at specified temperature and then quickly separated by piping out the bottom phase. […] 336 concentrations. In all cases, the […] 336 phase was the least dense phase or the top phase. […] 336 concentrations in the top and bottom phases. […] In some of the solvents, there was a significant amount of […] 336 co-extracted into the polar liquid phase. Dimethyl sulfoxide looks like a favorable solvent for this type of process because of the good selectivity for the lactic acid over the […] 336."}, "[2]": {"test": "Three successive contacts of fermentation broth with fresh extracting solvent (Example 21)", "conditions": "89 wt % Alamine 336, 9 wt % dodecanol, 2 wt % IsoPar K; for Lactic Acid Aqueous Phase wt % / Lactic Acid Organic Phase wt %: aqueous to organic phase ratio 3.0", "description": "Fermentation broth with a final pH of 3.87 and a total lactate material concentration of 79 g/liter as determined by high performance liquid chromatography was obtained."}, "[3]": {"test": "Single stage extraction of lactic acid from fermentation broth with different solvents (Example 20)", "conditions": "broth pH 3.87", "description": "Fermentation broth with a final pH value of 3.87 and a total lactate material concentration of 79 g/liter as determined by high performance liquid chromatography was obtained. A number of different solvents were contacted with the broth to determine the lactic acid recovery in a single stage. […] For the 100% Alamine 336 solvent, two organic phases were isolated and titrated and both values are reported. The partition coefficient is not reported for this system."}, "[4]": {"test": "Chiral purity of lactic acid after heating during triethylamine evaporation (Example 5)", "protocol": "The back extraction was scaled up to allow the distillation experiment. […] The triethylamine evaporated initially at 23° C. and 10 mm Hg. […] About 69% of the triethylamine evaporated out. […].\nThe remaining mixture was heated to 110° C. where it was held for 80 minutes. At this point, 96% of the triethylamine was evaporated."}, "[5]": {"conditions": "solvent 30 wt % TOPO, 70 wt % MIBK"}, "[6]": {"conditions": "solvent 82 wt % A336, 10 wt % OctOH, 8 wt % IPK"}, "[7]": {"conditions": "solvent 89 wt % A336, 9 wt % DodecOH, 2 wt % IPK"}}, "data": [{"smiles": "CC(O)C(=O)O", "note": "(stereo not drawn) [lactic acid, 2-hydroxypropionic acid]", "values": [{"measurement": "Partition Coefficient (lactic acid, Alamine 336 top phase / bottom polar liquid phase)", "setting": "[1]; solvent Lactide, 140 °C", "result": 0.82}, {"measurement": "Lactic acid Wt %", "setting": "[1]; solvent Lactide, 140 °C, Bottom phase, calculated from overall mass balance", "result": "2.98^2 Wt %"}, {"measurement": "Lactic acid Wt %", "setting": "[1]; solvent Lactide, 140 °C, Top (Alamine 336) phase", "result": 2.44, "unit": "Wt %"}, {"measurement": "Partition Coefficient (lactic acid, Alamine 336 top phase / bottom polar liquid phase)", "setting": "[1]; solvent NMP, 90 °C", "result": 0.29}, {"measurement": "Lactic acid Wt %", "setting": "[1]; solvent NMP, 90 °C, Bottom (polar liquid) phase", "result": 1.13, "unit": "Wt %"}, {"measurement": "Lactic acid Wt %", "setting": "[1]; solvent NMP, 90 °C, Top (Alamine 336) phase", "result": 0.33, "unit": "Wt %"}, {"measurement": "Partition Coefficient (lactic acid, Alamine 336 top phase / bottom polar liquid phase)", "setting": "[1]; solvent NMP, 110 °C", "result": 0.22}, {"measurement": "Lactic acid Wt %", "setting": "[1]; solvent NMP, 110 °C, Bottom (polar liquid) phase", "result": 12.2, "unit": "Wt %"}, {"measurement": "Lactic acid Wt %", "setting": "[1]; solvent NMP, 110 °C, Top (Alamine 336) phase", "result": 2.73, "unit": "Wt %"}, {"measurement": "Partition Coefficient", "setting": "[2]; Stage 1", "result": 2.5}, {"measurement": "Lactic Acid Aqueous Phase wt %", "setting": "[2]; Stage 1", "result": 1.55, "unit": "wt %"}, {"measurement": "Lactic Acid Organic Phase wt %", "setting": "[2]; Stage 1", "result": 3.9, "unit": "wt %"}, {"measurement": "Partition Coefficient", "setting": "[2]; Stage 2", "result": 1.25}, {"measurement": "Lactic Acid Aqueous Phase wt %", "setting": "[2]; Stage 2", "result": 1.09, "unit": "wt %"}, {"measurement": "Lactic Acid Organic Phase wt %", "setting": "[2]; Stage 2", "result": 1.36, "unit": "wt %"}, {"measurement": "Partition Coefficient", "setting": "[2]; Stage 3", "result": 0.84}, {"measurement": "Lactic Acid Aqueous Phase wt %", "setting": "[2]; Stage 3", "result": 0.88, "unit": "wt %"}, {"measurement": "Lactic Acid Organic Phase wt %", "setting": "[2]; Stage 3", "result": 0.74, "unit": "wt %"}, {"measurement": "Lactic Acid Aqueous Phase wt %", "setting": "[3]; [5]", "result": 2.24, "unit": "wt %"}, {"measurement": "Lactic Acid Organic Phase wt %", "setting": "[3]; [5]", "result": 2.36, "unit": "wt %"}, {"measurement": "Partition Coefficient", "setting": "[3]; [5]", "result": 1.05}, {"measurement": "Lactic Acid Aqueous Phase wt %", "setting": "[3]; [6]", "result": 1.52, "unit": "wt %"}, {"measurement": "Lactic Acid Organic Phase wt %", "setting": "[3]; [6]", "result": 5.09, "unit": "wt %"}, {"measurement": "Partition Coefficient", "setting": "[3]; [6]", "result": 3.35}, {"measurement": "Lactic Acid Aqueous Phase wt %", "setting": "[3]; [7]", "result": 4.76, "unit": "wt %"}, {"measurement": "Lactic Acid Organic Phase wt %", "setting": "[3]; [7]", "result": 1.84, "unit": "wt %"}, {"measurement": "Partition Coefficient", "setting": "[3]; [7]", "result": 2.6}, {"measurement": "Lactic Acid Aqueous Phase wt %", "setting": "[3]; solvent 100% A336", "result": 2.34, "unit": "wt %"}, {"measurement": "chiral purity after heating", "setting": "[4]; 21.5 wt % lactic acid in triethylamine and N-methyl-2-pyrrolidinone, 55° C. 10 mm Hg two hours, then 110° C. 80 minutes", "result": "not significantly changed"}, {"measurement": "chiral purity of the lactic acid after heating", "setting": "[4]; 43 wt % lactic acid in triethylamine, 10 mm Hg, heated to 120° C., held 90 minutes", "result": "not changed significantly"}]}]}
